Measured values published in patent US8653091B2, “Pyrid-2yl fused heterocyclic compounds, and compositions and uses thereof” (Evotec AG, priority 2007, dated 2014).

Experiments:
[1] = target: P2X2/3 (Homo sapiens (Human), UniProt P56373+Q9UBL9); assay: Calcium uptake assay (P2X antagonist assay), P2X2/3; assay type: cell-based; conditions: inhibition of agonist-induced calcium influx
Source text: (§1) Human P2X3 (Accession no. NM_002559), P2X2 (Accession no. NM_170682) and Rat P2X3 (Accession no. NM_031075) and P2X2 (Accession no. NM_053656) are cloned into a mammalian expression vector (e.g., pcDNA5/TO or pcDNA3 Invitrogen). The human P2X2/3 chimera clone is created as described by Neelands et al, and then cloned into an expression vector as above. Receptors are expressed in cells (e.g., HEK293 or 1321N1 (obtained from the ECACC)) via transient transfection using standard lipid mediated transfection, or by creation of stable transfectants for each receptor. For expression of the P2X2/3 heteromeric receptor, the P2X3 expression vector is stably transfected into a cell line already stably expressing P2X2. P2X2/3 heteromer function is isolated using pharmacological methods. Cell lines are maintained in DMEM+5% Glutamax, the appropriate level of selective antibiotic, and 10% heat inactivated FBS.
(§2) Functional activity of compounds at the P2X receptor is determined by measuring their ability to inhibit agonist-induced calcium influx. Compounds are tested for antagonist activity against the P2X2/3 chimera, the P2X3 homomer, or the P2X2/3 heteromer. At the start of each screening day, the agonist EC50 is determined. Compound % inhibition or IC50s are subsequently determined using a pre-determined agonist concentration (EC50-90 depending on cell line) as a stimulus. The agonists used are αβMeATP, ATP, or other ATP analogs. Compounds may be tested at concentrations ranging from 1 μM to 10 μM.
(§3) To test for antagonist activity, cells expressing the appropriate receptor are seeded onto 96 or 384 well plates 18-24 hours prior to assay. On the day of the assay, cells are loaded with calcium-sensitive fluorescent dye (e.g., Fluo-4 no wash reagent-Invitrogen cat#F36206, or the BD™ PBX Calcium Assay Kit—BD cat#640175) in Hank's Buffered Salt Solution (HESS) with up to 10 mM supplemental CaCl2. Plates are incubated at 37° C. and then equilibrated at room temperature. Antagonism of agonist-induced calcium influx is measured using a fluorescent imaging plate reader (e.g. FLIPR^TETRA, Molecular Devices, Sunnyvale, Calif.). The assay comprises two stages: a pre-treatment phase followed by a treatment phase. Compounds may be tested as follows: For the pre-treatment phase, 50 μL of 3× concentration of test compound in HBSS is added to cells containing 100 μL of dye loading media to achieve a final concentration of 1× test compound. For the treatment phase, at a set interval after pre-treatment (1-30 minutes), 50 μL of 1× test compound plus […] solution is added, resulting in a final concentration of 1× compound and 1× agonist. Fluorescence is measured at 0.1-3 second intervals—with an excitation wavelength of 494 nm and an emission wavelength of 515 nm. Responses are measured as (peak fluorescence after agonist addition) minus (baseline fluorescence prior to treatment). Percent inhibition is calculated as follows: […]
(§4) IC50 values are determined by analyzing dose response data in a 4 parameter logistic fit using GraphPad Prizm.

[2] = target: P2X3 (Homo sapiens (Human), UniProt P56373); assay: Calcium uptake assay (P2X antagonist assay), P2X3; assay type: cell-based; conditions: inhibition of agonist-induced calcium influx
Sequence of P2X3 (P56373 whole entry): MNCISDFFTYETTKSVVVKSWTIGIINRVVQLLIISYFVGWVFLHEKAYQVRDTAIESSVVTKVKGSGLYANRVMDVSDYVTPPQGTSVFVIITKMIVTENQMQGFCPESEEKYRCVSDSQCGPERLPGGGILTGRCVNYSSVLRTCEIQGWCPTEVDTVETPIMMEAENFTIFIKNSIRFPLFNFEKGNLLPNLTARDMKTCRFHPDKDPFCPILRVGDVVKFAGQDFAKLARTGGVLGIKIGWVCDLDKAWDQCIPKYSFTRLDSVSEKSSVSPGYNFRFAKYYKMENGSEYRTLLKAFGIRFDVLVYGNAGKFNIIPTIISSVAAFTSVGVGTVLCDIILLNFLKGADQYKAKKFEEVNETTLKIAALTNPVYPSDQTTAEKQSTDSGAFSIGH
Source text: as §1, §2, §3, §4

Sequence of P2X2/3 (Q9UBL9 whole entry): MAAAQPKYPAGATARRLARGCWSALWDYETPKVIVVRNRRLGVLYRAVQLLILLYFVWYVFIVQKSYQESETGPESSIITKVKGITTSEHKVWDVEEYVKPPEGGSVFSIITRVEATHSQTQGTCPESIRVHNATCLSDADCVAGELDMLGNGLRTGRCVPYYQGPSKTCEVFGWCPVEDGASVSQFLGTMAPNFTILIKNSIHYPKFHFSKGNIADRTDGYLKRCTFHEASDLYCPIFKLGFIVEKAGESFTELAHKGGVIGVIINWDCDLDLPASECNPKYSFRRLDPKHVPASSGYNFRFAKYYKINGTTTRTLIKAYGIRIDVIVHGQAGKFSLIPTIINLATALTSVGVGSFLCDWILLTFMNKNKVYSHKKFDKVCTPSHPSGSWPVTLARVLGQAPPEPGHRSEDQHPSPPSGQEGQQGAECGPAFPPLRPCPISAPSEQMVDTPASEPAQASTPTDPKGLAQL
Sequence of P2X2/3 (P56373 whole entry): as the sequence (P56373 whole entry) above

IC50 [1] [nM] | IC50 [2] [nM] | Structure (SMILES)
1910 | 48 | Cc1ccc(N2CCc3ncnc(N[C@H](C)c4ccc(Cl)cc4)c3C2)nc1 [Compound 7, [(R)-1-(4-Chloro-phenyl)-ethyl]-[6-(5-methyl-pyridin-2-yl)-5,6,7,8-tetrahydro-pyrido[4,3-d]pyrimidin-4-yl]-amine]
3880 | 143 | Cc1ccc(N2CCc3ncnc(NC(CCO)c4ccccc4)c3C2)nc1 (stereo not drawn) [Compound 32, 3-[6-(5-Methyl-pyridin-2-yl)-5,6,7,8-tetrahydro-pyrido[4,3-d]pyrimidin-4-ylamino]-3-phenyl-propan-1-ol]
335 | 24 | Cc1ccc(N2CCc3ncnc(N[C@H](CCO)c4ccc(C(F)(F)F)nc4)c3C2)nc1 [Compound 63, (R)-3-[6-(5-Methyl-pyridin-2-yl)-5,6,7,8-tetrahydro-pyrido[4,3-d]pyrimidin-4-ylamino]-3-(6-trifluoromethyl-pyridin-3-yl)-propan-1-ol]
1460 | 47 | Cc1ccc([C@@H](C)Nc2ncnc3c2CN(c2ccc(C)cn2)CC3)cc1 [Compound 34]
276 | 90 | COc1ccc([C@@H](CO)Nc2ncnc3c2CN(c2ccc(Cl)cn2)CC3)cn1 [Compound 59, (S)-2-[6-(5-Chloro-pyridin-2-yl)-5,6,7,8-tetrahydro-pyrido[4,3-d]pyrimidin-4-ylamino]-2-(6-methoxy-pyridin-3-yl)-ethanol]
522 | 67 | Cc1ccc(N2CCc3ncnc(NC(CCO)c4ccc(C(F)(F)F)nc4)c3C2)nc1 (stereo not drawn) [Compound 56, 3-[6-(5-Methyl-pyridin-2-yl)-5,6,7,8-tetrahydro-pyrido[4,3-d]pyrimidin-4-ylamino]-3-(6-trifluoromethyl-pyridin-3-yl)-propan-1-ol]
1420 | 43 | Cc1ccc(N2CCc3ncnc(NC(C)c4ccc(Cl)c(F)c4)c3C2)nc1 (stereo not drawn) [Compound 39, [1-(4-Chloro-3-fluoro-phenyl)-ethyl]-[6-(5-methyl-pyridin-2-yl)-5,6,7,8-tetrahydro-pyrido[4,3-d]pyrimidin-4-yl]-amine]
4250 | 128 | Cc1ccc(N2CCc3ncnc(NC(C)c4ccc(S(C)(=O)=O)cc4)c3C2)nc1 (stereo not drawn) [Compound 5, [1-(4-Methanesulfonyl-phenyl)-ethyl]-[6-(5-methyl-pyridin-2-yl)-5,6,7,8-tetrahydro-pyrido[4,3-d]pyrimidin-4-yl]-amine]
705 | 21 | COc1cccc([C@@H](C)Nc2ncnc3c2CN(c2ccc(C)cn2)CC3)c1 [Compound 47, [(R)-1-(3-Methoxy-phenyl)-ethyl]-[6-(5-methyl-pyridin-2-yl)-5,6,7,8-tetrahydro-pyrido[4,3-d]pyrimidin-4-yl]-amine]
318 | 103 | COc1ccc([C@@H](CCO)Nc2ncnc3c2CN(c2ccc(Cl)cn2)CC3)cn1 [Compound 57, (R)-3-[6-(5-Chloro-pyridin-2-yl)-5,6,7,8-tetrahydro-pyrido[4,3-d]pyrimidin-4-ylamino]-3-(6-methoxy-pyridin-3-yl)-propan-1-ol]
3070 | 50 | Cc1ccc(N2CCc3ncnc(NC(C)c4ccc(F)cc4F)c3C2)nc1 (stereo not drawn) [Compound 18, [1-(2,4-Difluoro-phenyl)-ethyl]-[6-(5-methyl-pyridin-2-yl)-5,6,7,8-tetrahydro-pyrido[4,3-d]pyrimidin-4-yl]-amine]
2430 | 56 | Cc1ccc(N2CCc3ncnc(NC(C)c4cccc(F)c4)c3C2)nc1 (stereo not drawn) [Compound 2, [1-(3-Fluoro-phenyl)-ethyl]-[6-(5-methyl-pyridin-2-yl)-5,6,7,8-tetrahydro-pyrido[4,3-d]pyrimidin-4-yl]-amine]
803 | 52 | Cc1ccc(N2CCc3ncnc(NC(C)c4cc(F)cc(F)c4)c3C2)nc1 (stereo not drawn) [Compound 17, [1-(3,5-Difluoro-phenyl)-ethyl]-[6-(5-methyl-pyridin-2-yl)-5,6,7,8-tetrahydro-pyrido[4,3-d]pyrimidin-4-yl]-amine]
1060 | 80 | COc1ccc(C(C)Nc2ncnc3c2CN(c2ccc(C)cn2)CC3)cc1F (stereo not drawn) [Compound 21, [1-(3-Fluoro-4-methoxy-phenyl)-ethyl]-[6-(5-methyl-pyridin-2-yl)-5,6,7,8-tetrahydro-pyrido[4,3-d]pyrimidin-4-yl]-amine]
2540 | 73 | Cc1ccc(N2CCc3ncnc(N[C@H](C)c4ccccc4)c3C2)nc1 [Compound 8, [6-(5-Methyl-pyridin-2-yl)-5,6,7,8-tetrahydro-pyrido[4,3-d]pyrimidin-4-yl]-((R)-1-phenyl-ethyl)-amine]
3970 | 123 | Cc1ccc(N2CCc3ncnc(NC(C)c4ccccn4)c3C2)nc1 (stereo not drawn) [Compound 10, [6-(5-Methyl-pyridin-2-yl)-5,6,7,8-tetrahydro-pyrido[4,3-d]pyrimidin-4-yl]-(1-pyridin-2-yl-ethyl)-amine]
2740 | 63 | Cc1ccc(N2CCc3ncnc(NC(C)c4cccnc4)c3C2)nc1 (stereo not drawn) [Compound 11, [6-(5-Methyl-pyridin-2-yl)-5,6,7,8-tetrahydro-pyrido[4,3-d]pyrimidin-4-yl]-(1-pyridin-3-yl-ethyl)-amine]

Structure (SMILES) | IC50 [1] [nM] | IC50 [2] [nM]
Cc1ccc(N2CCc3ncnc(N[C@H](C)c4cnc(C)nc4)c3C2)nc1 [Compound 64, [6-(5-Methyl-pyridin-2-yl)-5,6,7,8-tetrahydro-pyrido[4,3-d]pyrimidin-4-yl]-[(R)-1-(2-methyl-pyrimidin-5-yl)-ethyl]-amine] | 260 | 17
Cc1ccc(N2CCc3ncnc(N[C@H](CO)c4ccc(C(F)(F)F)cc4)c3C2)nc1 [Compound 55, (S)-2-(6-(5-Methylpyridin-2-yl)-5,6,7,8-tetrahydropyrido[4,3-d]pyrimidin-4-ylamino)-2-(4-(trifluoromethyl)phenyl)ethanol] | 3970 | 158
COc1ccc([C@@H](CO)Nc2ncnc3c2CN(c2ccc(C)cn2)CC3)cn1 [Compound 60, (S)-2-(6-Methoxy-pyridin-3-yl)-2-[6-(5-methyl-pyridin-2-yl)-5,6,7,8-tetrahydro-pyrido[4,3-d]pyrimidin-4-ylamino]-ethanol] | 97 | 27
COc1ccc([C@@H](CCO)Nc2ncnc3c2CN(c2ccc(C)cn2)CC3)cn1 [Compound 58, (R)-3-(6-Methoxy-pyridin-3-yl)-3-[6-(5-methyl-pyridin-2-yl)-5,6,7,8-tetrahydro-pyrido[4,3-d]pyrimidin-4-ylamino]-propan-1-ol] | 83 | 29
